The results in this text go back to patent US20150239889A1, “PYRAZOLOPYRIMIDINE COMPOUND” (MITSUBISHI TANABE PHARMA CORPORATION, priority 2012, published 2015).

Experiment [1] has as its target T1, human HIF-PHD2 (Homo sapiens, UniProt Q9GZT9).
T1 construct: purchased CrystalGenomics Ltd
In words: HIF-PHD inhibition assay (fluorescence polarization), human HIF-PHD2. Format: biochemical. Conditions: 2-oxoglutaric acid 3.33 μmol/L. An outline of the steps:
(§1)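 Measured signal: mP difference, after versus before enzyme addition, representing enzyme activity. Detection relied on a FAM-tagged, ACA-spaced fluorescent probe.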
Background: Polarisation of emitted light reports the rotation of a fluorescent probe.

For experiment [2], the system named is Hep3B cells. The experiment can be described thus: EPO production assay (ELISA of culture supernatant). It is filed as cell-based. Conditions: Homo sapiens, 3 μmol/L test compound, 48 hours, relative to control (0.1% DMSO), read-out: EPO production stimulation rate with 3 μmol/L test compound. In short, it runs like this: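 Values are fold EPO production at 3 μmol/L compound relative to untreated control, quantified by ELISA of culture supernatant. Hep3B cells were exposed for 48 h in MEM containing 0.5% FBS and 0.1% DMSO.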
On the technique in general: ELISA stands for enzyme-linked immunosorbent assay.

Experiment [3] addresses T2, human HIF-PHD3 (Homo sapiens, UniProt Q9H6Z9).
T2 construct: purchased CrystalGenomics Ltd
In words: HIF-PHD inhibition assay (fluorescence polarization), human HIF-PHD3. Conditions: 2-oxoglutaric acid 166 μmol/L. It is filed as biochemical. An outline of the steps:
as §1

Structures are written as SMILES.

T2 sequence (Q9H6Z9 whole entry): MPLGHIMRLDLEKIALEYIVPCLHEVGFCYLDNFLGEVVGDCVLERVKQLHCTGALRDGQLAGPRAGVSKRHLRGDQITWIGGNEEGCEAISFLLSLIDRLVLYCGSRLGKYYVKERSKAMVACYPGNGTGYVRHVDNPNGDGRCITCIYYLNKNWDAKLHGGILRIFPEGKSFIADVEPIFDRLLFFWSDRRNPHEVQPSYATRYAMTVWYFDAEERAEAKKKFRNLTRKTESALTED
T1 sequence (Q9GZT9 2-426 limits assumed): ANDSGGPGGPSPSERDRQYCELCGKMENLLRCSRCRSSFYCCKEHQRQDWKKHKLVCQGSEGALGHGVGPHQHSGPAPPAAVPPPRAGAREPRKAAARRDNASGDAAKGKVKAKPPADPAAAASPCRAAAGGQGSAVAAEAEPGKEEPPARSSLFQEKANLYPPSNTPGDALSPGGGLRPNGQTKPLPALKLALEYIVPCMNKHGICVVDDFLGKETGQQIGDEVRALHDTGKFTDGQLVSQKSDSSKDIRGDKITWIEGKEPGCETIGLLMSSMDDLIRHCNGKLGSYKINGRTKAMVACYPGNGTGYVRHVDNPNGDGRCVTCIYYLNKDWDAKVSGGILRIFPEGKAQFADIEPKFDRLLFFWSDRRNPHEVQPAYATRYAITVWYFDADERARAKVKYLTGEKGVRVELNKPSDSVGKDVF

What is called IC50 is the concentration that inhibits the measured activity by half. Turning to `O=C(O)c1cnn(-c2nc(O)c3c(cnn3Cc3cc(F)cc(C(F)(F)F)c3)n2)c1` [Example 8], the values for the IC50 in experiment [1] and in experiment [3] were 48 nM and 560 nM, respectively. For the same compound, in experiment [2], the fold induction at 3 µM amounted to 5.4.

For the compound `C[C@@H](c1ccc(C(F)(F)F)cc1)n1nc(F)c2nc(-n3cc(C(=O)O)cn3)nc(O)c21` [Example 439], the IC50 in experiment [1] came out at 22 nM; in experiment [3], 550 nM. Moreover, in experiment [2], the fold induction at 3 µM came to 5.3.

`O=C(O)c1cnn(-c2nc(O)c3c(cnn3Cc3ccc(-c4ccccc4F)cc3C(F)(F)F)n2)c1` [Example 89]: the IC50 was determined as 48 nM in experiment [1] and 1300 nM in experiment [3]. Also, the fold induction at 3 µM in experiment [2] stood at 16.

Turning to `COc1cc(Cn2ncc3nc(-n4cc(C(=O)O)cn4)nc(O)c32)ccc1-c1ccccc1C` [Example 98], the IC50 worked out at 20 nM in experiment [1] and 190 nM in experiment [3]. Further, the fold induction at 3 µM in experiment [2] was determined as 8.6.

Consider `O=C(O)c1cnn(-c2nc(O)c3c(cnn3CCCOc3ccc(-c4ccccc4)cc3)n2)c1` [Example 196], for which the IC50 in experiment [1] is 20 nM; in experiment [3] it was 300 nM. Besides, the fold induction at 3 µM in experiment [2] was 25.

Regarding `COc1cccc(Cl)c1-c1ccc(Cn2ncc3nc(-n4cc(C(=O)O)cn4)nc(O)c32)cc1` [Example 69], the concentration for half-maximal inhibition (IC50) in experiment [1] came out at 13 nM; in experiment [3], 110 nM. Moreover, in experiment [2], the fold induction at 3 µM is 7.8.

For the compound `O=C(O)c1cnn(-c2nc(O)c3c(cnn3Cc3ccc(F)c(-c4ccccc4)c3)n2)c1` [Example 51], the IC50 in experiment [1] is 34 nM; in experiment [3], 190 nM. The fold induction at 3 µM in experiment [2] is 3.9.

As to `O=C(O)c1cnn(-c2nc(O)c3c(cnn3Cc3cc(-c4ccccc4)ccc3F)n2)c1` [Example 49], the results for the IC50 in experiment [1] and in experiment [3] were 30 nM and 200 nM, respectively. Further, the fold induction at 3 µM in experiment [2] was determined as 7.6.

With `O=C(O)c1cnn(-c2nc(O)c3c(cnn3Cc3ccc(F)c(Cl)c3)n2)c1` [Example 10], the half-inhibitory concentration (IC50) in experiment [1] was 22 nM; in experiment [3], 240 nM. Moreover, the fold induction at 3 µM in experiment [2] stood at 3.4.

As for `O=C(O)c1cnn(-c2nc(O)c3c(cnn3Cc3ccc(-c4ccccc4Cl)cc3)n2)c1` [Example 62], the 50% inhibitory concentration (IC50) was 17 nM in experiment [1] and 140 nM in experiment [3]. Further, in experiment [2], the fold induction at 3 µM worked out at 12.

For `Cc1ncccc1-c1ccc(Cn2ncc3nc(-n4cc(C(=O)O)cn4)nc(O)c32)cc1F` [Example 106], the figures for the half-inhibitory concentration (IC50) in experiment [1] and in experiment [3] were 7.4 nM and 28 nM, respectively. The fold induction at 3 µM in experiment [2] is 5.2.

Take `O=C(O)c1cnn(-c2nc(O)c3c(cnn3Cc3ccc(-c4ccc(C(F)(F)F)cc4)cc3)n2)c1` [Example 67]: the IC50 stood at 10 nM in experiment [1] and 190 nM in experiment [3]. For the same compound, in experiment [2], the fold induction at 3 µM is 19.

Turning to `Cc1cccc(C)c1-c1cccc(Cn2ncc3nc(-n4cc(C(=O)O)cn4)nc(O)c32)c1` [Example 48], the half-maximal inhibitory concentration (IC50) in experiment [1] was 70 nM; in experiment [3], 340 nM. In addition, the fold induction at 3 µM in experiment [2] turned out to be 6.6.

For the compound `Cc1nn(Cc2ccc(-c3ccccc3)cc2)c2c(O)nc(-n3cc(C(=O)O)cn3)nc12` [Example 228], the IC50 in experiment [1] turned out to be 10 nM; in experiment [3] it was 68 nM. In addition, the fold induction at 3 µM in experiment [2] came out at 3.9.

Turning to `Cc1nn(C[C@H]2CC[C@H](C(F)(F)F)CC2)c2c(O)nc(-n3cc(C(=O)O)cn3)nc12` [Example 474], the IC50 in experiment [1] is 30 nM; in experiment [3], 190 nM. Moreover, in experiment [2], the fold induction at 3 µM amounted to 2.8.

Take `C[C@H](c1ccc(-c2ccccc2)cc1)n1ncc2nc(-n3cc(C(=O)O)cn3)nc(O)c21` [Example 109]: the IC50 was determined as 24 nM in experiment [1] and 260 nM in experiment [3]. The fold induction at 3 µM in experiment [2] stood at 20.

For `CC(C)(Cn1ncc2nc(-n3cc(C(=O)O)cn3)nc(O)c21)Oc1ccccc1Cl` [Example 209], the IC50 in experiment [1] came to 33 nM; in experiment [3], 230 nM. Further, the fold induction at 3 µM in experiment [2] was 2.2.

As to `COc1ccc(Cn2cc3nc(-n4cc(C(=O)O)cn4)nc(O)c3n2)cc1` [Example 236], the half-inhibitory concentration (IC50) came out at 11 nM in experiment [1] and 77 nM in experiment [3]. Further, the fold induction at 3 µM in experiment [2] was 0.91.

In the case of `O=C(O)c1cnn(-c2nc(O)c3c(cnn3CCCCOc3ccc(F)cc3)n2)c1` [Example 215], the values for the IC50 in experiment [1] and in experiment [3] were 14 nM and 290 nM, respectively. Besides, the fold induction at 3 µM in experiment [2] worked out at 6.7.

On to `O=C(O)c1cnn(-c2nc(O)c3c(cnn3Cc3cccc(-c4ccc(C(F)(F)F)cc4)c3)n2)c1` [Example 41], for which the IC50 amounted to 22 nM in experiment [1] and 340 nM in experiment [3]. Further, the fold induction at 3 µM in experiment [2] was 9.5.

For `O=C(O)c1cnn(-c2nc(O)c3c(cnn3C[C@H]3CC[C@H](c4ccc(Cl)cc4)CC3)n2)c1` [Example 156], the IC50 stood at 20 nM in experiment [1] and 160 nM in experiment [3]. The fold induction at 3 µM in experiment [2] was 24.

For `O=C(O)c1cnn(-c2nc(O)c3c(n2)c(Cl)nn3CC2CCCCCC2)c1` [Example 226], the IC50 stood at 47 nM in experiment [1] and 1400 nM in experiment [3]. Moreover, the fold induction at 3 µM in experiment [2] was 2.2.

For `Cc1nn(Cc2ccc(C(F)(F)F)cc2)c2c(O)nc(-n3cc(C(=O)O)cn3)nc12` [Example 444], the IC50 turned out to be 37 nM in experiment [1] and 360 nM in experiment [3]. The fold induction at 3 µM in experiment [2] came out at 2.2.

With `O=C(O)c1cnn(-c2nc(O)c3c(cnn3C[C@H]3CC[C@H](Oc4ccc(C(F)(F)F)cc4)CC3)n2)c1` [Example 152], the values for the IC50 in experiment [1] and in experiment [3] were 20 nM and 140 nM, respectively. Moreover, the fold induction at 3 µM in experiment [2] came out at 20.

With `Cc1ccc2cc(CCn3ncc4nc(-n5cc(C(=O)O)cn5)nc(O)c43)ccc2c1` [Example 127], the figures for the half-maximal inhibitory concentration (IC50) in experiment [1] and in experiment [3] were 6.2 nM and 62 nM, respectively. Also, the fold induction at 3 µM in experiment [2] turned out to be 17.

Take `O=C(O)c1cnn(-c2nc(O)c3c(cnn3Cc3ccc(Cl)cc3)n2)c1` [Example 13]: the IC50 in experiment [1] stood at 20 nM; in experiment [3] it was 230 nM. Further, in experiment [2], the fold induction at 3 µM worked out at 4.3.

As to `O=C(O)c1cnn(-c2nc(O)c3nn(Cc4ccccc4-c4ccccc4)cc3n2)c1` [Example 241], the 50% inhibitory concentration (IC50) is 8.7 nM in experiment [1] and 370 nM in experiment [3]. For the same compound, the fold induction at 3 µM in experiment [2] was found to be 1.2.

On to `O=C(O)c1cnn(-c2nc(O)c3c(cnn3Cc3ccc(-c4ccccc4F)cc3F)n2)c1` [Example 80], for which the IC50 in experiment [1] was found to be 8.9 nM; in experiment [3] it was 42 nM. Moreover, the fold induction at 3 µM in experiment [2] stood at 9.5.

Turning to `C[C@@H](c1ccc(-c2ccccc2F)cc1)n1ncc2nc(-n3cc(C(=O)O)cn3)nc(O)c21` [Example 112], the IC50 in experiment [1] came out at 13 nM; in experiment [3], 87 nM. In experiment [2], the fold induction at 3 µM worked out at 28.

For the compound `O=C(O)c1cnn(-c2nc(O)c3nn(Cc4ccc(Cl)cc4F)cc3n2)c1` [Example 244], the IC50 in experiment [1] is 63 nM; in experiment [3], 180 nM. The fold induction at 3 µM in experiment [2] was 1.4.

`O=C(O)c1cnn(-c2nc(O)c3c(cnn3CCc3ccc4ccccc4c3)n2)c1` [Example 116]: the figures for the half-inhibitory concentration (IC50) in experiment [1] and in experiment [3] were 21 nM and 190 nM, respectively. In addition, the fold induction at 3 µM in experiment [2] was 4.

In the case of `COc1cc(Cn2ncc3nc(-n4cc(C(=O)O)cn4)nc(O)c32)ccc1-c1ccccc1F` [Example 96], the concentration for half-maximal inhibition (IC50) is 13 nM in experiment [1] and 110 nM in experiment [3]. Also, the fold induction at 3 µM in experiment [2] amounted to 6.8.

Consider `O=C(O)c1cnn(-c2nc(O)c3c(cnn3Cc3ccc(-c4ccccc4)c(F)c3)n2)c1` [Example 91], for which the half-inhibitory concentration (IC50) in experiment [1] was 24 nM; in experiment [3], 28 nM. In addition, the fold induction at 3 µM in experiment [2] worked out at 8.6.

Consider `CCc1ccccc1-c1ccc(Cn2ncc3nc(-n4cc(C(=O)O)cn4)nc(O)c32)cc1` [Example 58], for which the IC50 came out at 21 nM in experiment [1] and 65 nM in experiment [3]. In addition, in experiment [2], the fold induction at 3 µM turned out to be 9.3.

Regarding `O=C(O)c1cnn(-c2nc(O)c3c(n2)c(Cl)nn3Cc2ccc(Br)cc2)c1` [Example 220], the IC50 was determined as 14 nM in experiment [1] and 340 nM in experiment [3]. For the same compound, the fold induction at 3 µM in experiment [2] was determined as 4.

On to `O=C(O)c1cnn(-c2nc(O)c3c(cnn3Cc3ccc(-c4cccc(C(F)(F)F)c4)cc3)n2)c1` [Example 65], for which the figures for the IC50 in experiment [1] and in experiment [3] were 11 nM and 180 nM, respectively. In experiment [2], the fold induction at 3 µM was 20.

Turning to `O=C(O)c1cnn(-c2nc(O)c3c(cnn3Cc3ccc(-c4ccc(F)cc4)cc3)n2)c1` [Example 66], the figures for the IC50 in experiment [1] and in experiment [3] were 17 nM and 110 nM, respectively. For the same compound, the fold induction at 3 µM in experiment [2] was found to be 33.

Consider `C[C@@H](c1ccc2ccccc2c1)n1nc(F)c2nc(-n3cc(C(=O)O)cn3)nc(O)c21` [Example 442], for which the IC50 was found to be 11 nM in experiment [1] and 360 nM in experiment [3]. In addition, the fold induction at 3 µM in experiment [2] came to 3.3.

For `O=C(O)c1cnn(-c2nc(O)c3c(cnn3Cc3ccc(-c4c(F)cccc4F)cc3F)n2)c1` [Example 81], the IC50 in experiment [1] stood at 35 nM; in experiment [3], 170 nM. Also, the fold induction at 3 µM in experiment [2] was determined as 5.4.

On to `O=C(O)c1cnn(-c2nc(O)c3c(cnn3CCCC3CCCCC3)n2)c1` [Example 161], for which the results for the half-inhibitory concentration (IC50) in experiment [1] and in experiment [3] were 31 nM and 150 nM, respectively. Also, in experiment [2], the fold induction at 3 µM was 3.1.

Regarding `O=C(O)c1cnn(-c2nc(O)c3c(cnn3Cc3ccc(-c4ccccc4C(F)(F)F)cc3F)n2)c1` [Example 84], the 50% inhibitory concentration (IC50) in experiment [1] stood at 13 nM; in experiment [3], 200 nM. For the same compound, in experiment [2], the fold induction at 3 µM turned out to be 4.3.

For `C[C@@H](c1cccc(-c2ccccc2)c1)n1ncc2nc(-n3cc(C(=O)O)cn3)nc(O)c21` [Example 54], the IC50 in experiment [1] was 18 nM; in experiment [3], 250 nM. The fold induction at 3 µM in experiment [2] is 5.6.
